Where a name gives a salt, the structure may show the parent alone.
What follows are molecules tested against T1, recombinant human MCHR1-receptors (Homo sapiens, UniProt Q99705) (assay: MCHR filter binding assay (competition binding)). Conditions: membranes from CHO-K1 cells expressing human MCHR1; 0.2 nM [Phe13,[125I]Tyr19]-MCH; read-out: IC50 (nM), in vitro activity (binding assay).
T1 construct: expressed in transfected cells
Description: MCHR Filter Binding Assay
Competition binding assays were performed using membranes from CHO-K1 cells stably expressing the recombinant human MCHR1-receptors. Binding reactions (90 μl, final volume) were carried out at rt by incubating 2.8 μg membranes with 0.2 nM [Phe^13,[^125I]Tyr^19]-MCH (PerkinElmer) in the absence or presence of various concentrations of competing ligands in binding buffer (50 mM HEPES, 2.5 mM CaCl2, 0.05 mM BSA, 1 mM phenanthroline, 0.03 mM Triton X-100). [Phe^13,[^125I]Tyr^19]-MCH was added 15 min following the addition of unlabeled competing ligands, and the reactions incubated for a 1 h period. The reactions were terminated by rapid filtration over pretreated 96-well filter plates (Millipore; MultiScreen 0.65 μm GFB filter plates). Filter Plates were treated for 12 h at 4° C. with a 0.5% polyvinylpyrrolidone solution containing 1% BSA and 0.1% Tween 20, and then washed with an ice-cold solution of 10 mM Tris, pH 7.5 (5×200 μl). The plates were drained following a 5 min incubation with binding buffer (200 μl) at rt. Following termination of the binding reactions, the filters were washed with ice-cold binding buffer (4×200 μl). The filter plates were air dried for 30 min, scintillation cocktail (60 μl) added to each well and radioactivity bound to the plates was determined using a Micro-beta plate reader (Wallace/PerkinElmer).

T1 sequence (Q99705 whole entry): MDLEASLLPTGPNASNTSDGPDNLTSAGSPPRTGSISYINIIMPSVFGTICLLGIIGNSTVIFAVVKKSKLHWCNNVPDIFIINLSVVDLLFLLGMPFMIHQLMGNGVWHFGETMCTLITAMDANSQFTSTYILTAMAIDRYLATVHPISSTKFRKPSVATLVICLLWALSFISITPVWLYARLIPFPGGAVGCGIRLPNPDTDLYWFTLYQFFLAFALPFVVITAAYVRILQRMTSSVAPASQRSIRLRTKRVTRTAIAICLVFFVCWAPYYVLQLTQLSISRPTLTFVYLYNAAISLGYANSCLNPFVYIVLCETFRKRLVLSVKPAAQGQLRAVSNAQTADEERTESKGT

| Structure (SMILES) | IC50 |
| --- | --- |
| CSC1CN(C[C@@H]2Cc3ccc(NC(=O)C(C)C)cc3C2)CCC1n1c(C)nc2cc(C)ccc21 (stereo partly drawn) [Example 22, N-{(R)-2-[4-(2,5-Dimethyl-benzoimidazol-1-yl)-3-methylsulfanyl-piperidin-1-ylmethyl]-indan-5-yl}-isobutyramide; dihydrochloride] | 20 to 200 nM |
| Cc1ccc2c(c1)nc(CC(C)(C)O)n2C1CCN(CC2Cc3ccc(F)cc3C2)CC1 (stereo not drawn) [Example 23, 1-{1-[1-(5-Fluoro-indan-2-ylmethyl)-piperidin-4-yl]-5-methyl-1H-benzoimidazol-2-yl}-2-methyl-propan-2-ol; dihydrochloride] | 20 to 200 nM |
| CO[C@@H]1CN(CC2Cc3ccccc3C2)CC[C@H]1n1c(C(C)C)nc2cc(C)ccc21 [Example 24, 1-((3R,4R)-1-Indan-2-ylmethyl-3-methoxy-piperidin-4-yl)-2-isopropyl-5-methyl-1H-benzoimidazole] | 20 to 200 nM |
| CCC(=O)Nc1ccc2c(c1)C[C@H](CN1CC[C@@H](n3c(C)nc4cc(F)ccc43)[C@H](OC)C1)C2 [Example 25, N-{(R)-2-[(3R,4R)-4-(5-Fluoro-2-methyl-benzoimidazol-1-yl)-3-methoxy-piperidin-1-ylmethyl]-indan-5-yl}-propionamide; dihydrochloride] | 20 to 200 nM |
| CO[C@@H]1CN(C[C@H]2Cc3ccc(Br)cc3C2)CC[C@H]1n1c(C(C)(C)C)nc2cc(C)ccc21 [Example 26, 1-[(3R,4R)-1-((S)-5-Bromo-indan-2-ylmethyl)-3-methoxy-piperidin-4-yl]-2-tert-butyl-5-methyl-1H-benzoimidazole] | 20 to 200 nM |
| Cc1ccc2c(c1)nc(C)n2C1CCN(C[C@@H]2Cc3ccc(NC(=O)C(C)C)cc3C2)CC1O (stereo partly drawn) [Example 27, N-{(R)-2-[4-(2,5-Dimethyl-benzoimidazol-1-yl)-3-hydroxy-piperidin-1-ylmethyl]-indan-5-yl}-isobutyramide; dihydrochloride] | 200 to 5000 nM |
| CO[C@@H]1CN(C[C@@H]2Cc3ccc(NC(=O)C4CC4)cc3C2)CC[C@H]1n1c(C)nc2cc(F)ccc21 [Example 28, Cyclopropanecarboxylic acid {(R)-2-[(3R,4R)-4-(5-fluoro-2-methyl-benzoimidazol-1-yl)-3-methoxy-piperidin-1-ylmethyl]-indan-5-yl}-amide; dihydrochloride] | 200 to 5000 nM |
| CO[C@H]1CN(CC2Cc3ccccc3C2)CC[C@@H]1n1c(C(C)C)nc2cc(C)ccc21 [Example 29, 1-((3S,4S)-1-Indan-2-ylmethyl-3-methoxy-piperidin-4-yl)-2-isopropyl-5-methyl-1H-benzoimidazole] | 200 to 5000 nM |
| Cc1ccc2c(c1)nc(Cl)n2C1CCN(C[C@@H]2Cc3ccc(NC(=O)C4CC4)cc3C2)CC1 [Example 30, Cyclopropanecarboxylic acid {(R)-2-[4-(2-chloro-5-methyl-benzoimidazol-1-yl)-piperidin-1-ylmethyl]-indan-5-yl}-amide; dihydrochloride] | 200 to 5000 nM |
| Cc1ccc2c(c1)nc(Cl)n2C1CCN(C[C@@H]2Cc3ccc(N)cc3C2)CC1 [Example 31, (R)-2-[4-(2-Chloro-5-methyl-benzoimidazol-1-yl)-piperidin-1-ylmethyl]-indan-5-ylamine; dihydrochloride] | 200 to 5000 nM |
| Cc1ccc2c(c1)nc(-c1ccccc1)n2C1CCN(C[C@@H]2Cc3ccc(NC(=O)C(C)C)cc3C2)CC1 [Example 33, N-{(R)-2-[4-(5-Methyl-2-phenyl-benzoimidazol-1-yl)-piperidin-1-ylmethyl]-indan-5-yl}-isobutyramide] | < 20 nM |
| CO[C@H]1CN(C[C@@H]2Cc3ccc(NC(=O)C(C)C)cc3C2)CC[C@@H]1n1c(C)nc2cc(C)ccc21 [Example 34, N-{(R)-2-[(3S,4S)-4-(2,5-Dimethyl-benzoimidazol-1-yl)-3-methoxy-piperidin-1-ylmethyl]-indan-5-yl}-isobutyramide] | < 20 nM |
| Cc1ccc2c(c1)nc(C)n2C1CCN(C[C@@H]2Cc3ccc(NC(=O)C(C)C)cc3C2)CC1 [Example 35, N-{(R)-2-[4-(2,5-Dimethyl-benzoimidazol-1-yl)-piperidin-1-ylmethyl]-indan-5-yl}-isobutyramide] | < 20 nM |
| Cc1ccc2c(c1)nc(C)n2[C@@H]1CCN(C[C@@H]2Cc3ccc(NC(=O)C(C)C)cc3C2)C[C@H]1CO [Example 36, N-{(R)-2-[4-(2,5-Dimethyl-benzoimidazol-1-yl)-3-hydroxymethyl-piperidin-1-ylmethyl]-indan-5-yl}-isobutyramide] | < 20 nM |
| Cc1ccc2c(c1)nc(C)n2C1CCN(C[C@H]2Cc3ccc(NC(=O)Cc4cccs4)cc3C2)CC1 [Example 38, N-{(S)-2-[4-(2,5-Dimethyl-benzoimidazol-1-yl)-piperidin-1-ylmethyl]-indan-5-yl}-2-thiophen-2-yl-acetamide] | < 20 nM |
| CO[C@@H]1CN(C[C@H]2Cc3ccc(NC(=O)C(C)C)cc3C2)CC[C@H]1n1c(C)nc2cc(C)ccc21 [Example 39, N-{(S)-2-[(3R,4R)-4-(2,5-Dimethyl-benzoimidazol-1-yl)-3-methoxy-piperidin-1-ylmethyl]-indan-5-yl}-isobutyramide; dihydrochloride] | < 20 nM |
| COC(=O)Nc1ccc2c(c1)C[C@H](CN1CCC(n3c(C(C)(C)C)nc4cc(C)ccc43)CC1)C2 [Example 40, {(R)-2-[4-(2-tert-Butyl-5-methyl-benzoimidazol-1-yl)-piperidin-1-ylmethyl]-indan-5-yl}-carbamic acid methyl ester] | < 20 nM |
| Cc1ccc2c(c1)nc(C(C)(C)C)n2C1CCN(C[C@@H]2Cc3ccc(NC(=O)C(C)C)cc3C2)CC1 [Example 41, N-{(R)-2-[4-(2-tert-Butyl-5-methyl-benzoimidazol-1-yl)-piperidin-1-ylmethyl]-indan-5-yl}-isobutyramide] | < 20 nM |
| COC(=O)Nc1ccc2c(c1)C[C@H](CN1CCC(n3c(-c4ccccc4)nc4cc(C)ccc43)CC1)C2 [Example 42, {(R)-2-[4-(5-Methyl-2-phenyl-benzoimidazol-1-yl)-piperidin-1-ylmethyl]-indan-5-yl}-carbamic acid methyl ester] | < 20 nM |
| CO[C@@H]1CN(C[C@H]2Cc3ccc(NC(=O)C(C)C)cc3C2)CC[C@H]1n1c(C)nc2cc(C)ccc21 [Example 43, N-{(S)-2-[(3R,4R)-4-(2,5-Dimethyl-benzoimidazol-1-yl)-3-methoxy-piperidin-1-ylmethyl]-indan-5-yl}-isobutyramide] | 20 to 200 nM |
| CCCC(=O)Nc1ccc2c(c1)C[C@@H](CN1CCC(n3c(C)nc4cc(C)ccc43)CC1)C2 [Example 44, -{(S)-2-[4-(2,5-Dimethyl-benzoimidazol-1-yl)-piperidin-1-ylmethyl]-indan-5-yl}-butyramide] | 20 to 200 nM |
| CCC(=O)Nc1ccc2c(c1)C[C@H](CN1CC[C@@H](n3c(C(C)C)nc4cc(C)ccc43)[C@H](OC)C1)C2 [Example 45, N-{(R)-2-[(3R,4R)-4-(2-Isopropyl-5-methyl-benzoimidazol-1-yl)-3-methoxy-piperidin-1-ylmethyl]-indan-5-yl}-propionamide] | 20 to 200 nM |
| Cc1ccc2c(c1)nc(C)n2C1CCN(CC2Cc3ccc(NC(=O)C(C)C)cc3C2)CC1 (stereo not drawn) [Example 46, N-{2-[4-(2,5-Dimethyl-benzoimidazol-1-yl)-piperidin-1-ylmethyl]-indan-5-yl}-isobutyramide] | 20 to 200 nM |
| CO[C@@H]1CN(C[C@@H]2Cc3ccc(NC(=O)C(C)C)cc3C2)CC[C@H]1n1c(C)nc2cc(C)ccc21 [Example 47, N-{(R)-2-[(3R,4R)-4-(2,5-Dimethyl-benzoimidazol-1-yl)-3-methoxy-piperidin-1-ylmethyl]-indan-5-yl}-isobutyramide] | 20 to 200 nM |
| Cc1ccc2c(c1)nc(C)n2C1CCN(C[C@H]2Cc3ccc(NC(=O)C(C)C)cc3C2)CC1 [Example 48, N-{(S)-2-[4-(2,5-Dimethyl-benzoimidazol-1-yl)-piperidin-1-ylmethyl]-indan-5-yl}-isobutyramide] | 20 to 200 nM |
| CO[C@H]1CN(C[C@H]2Cc3ccc(NC(=O)C(C)C)cc3C2)CC[C@@H]1n1c(C)nc2cc(C)ccc21 [Example 49, N-{(S)-2-[(3S,4S)-4-(2,5-Dimethyl-benzoimidazol-1-yl)-3-methoxy-piperidin-1-ylmethyl]-indan-5-yl}-isobutyramide] | 20 to 200 nM |
| CO[C@@H]1CN(CC2Cc3ccccc3C2)CC[C@H]1n1c(C)nc2cc(C)ccc21 [Example 50, 1-((3R,4R)-1-Indan-2-ylmethyl-3-methoxy-piperidin-4-yl)-2,5-dimethyl-1H-benzoimidazole] | 20 to 200 nM |
| CCC(C)C(=O)Nc1ccc2c(c1)CC(CN1CCC(n3c(C)nc4cc(C)ccc43)CC1)C2 (stereo not drawn) [Example 51, N-{2-[4-(2,5-Dimethyl-benzoimidazol-1-yl)-piperidin-1-ylmethyl]-indan-5-yl}-2-methyl-butyramide] | 20 to 200 nM |
| Cc1ccc2c(c1)nc(-c1ccccc1)n2C1CCN(C[C@@H]2Cc3ccc(N)cc3C2)CC1 [Example 52, (R)-2-[4-(5-Methyl-2-phenyl-benzoimidazol-1-yl)-piperidin-1-ylmethyl]-indan-5-ylamine] | 20 to 200 nM |
| Cc1ccc2c(c1)nc(C)n2C1CCN(CC2=Cc3ccc(NC(=O)C(C)C)cc3C2)CC1 [Example 53, N-{2-[4-(2,5-Dimethyl-benzoimidazol-1-yl)-piperidin-1-ylmethyl]-3H-inden-5-yl}-isobutyramide] | 20 to 200 nM |
